Laboratory results taken from patent US20150031655A1, “COMBINATION OF LIVER X RECEPTOR MODULATOR AND ESTROGEN RECEPTOR MODULATOR FOR THE TREATMENT OF AGE-RELATED DISEASES” (UNIVERSITY OF NORTH DAKOTA, priority 2011, published 2015).

Assays:
LXRα = target: T1, LXRα (Homo sapiens, UniProt Q13133); test: ChIP, LXRα binding to the LXRE in the α-synuclein promoter; type: cell-based; conditions: SH-SY5Y; for LXRα binding to the LXRE on the α-synuclein promoter: treatment alone vs control
T1 construct: endogenous in cells; host or cells: SH-SY5Y human neuroblastoma cells
T1 sequence (Q13133 1-447): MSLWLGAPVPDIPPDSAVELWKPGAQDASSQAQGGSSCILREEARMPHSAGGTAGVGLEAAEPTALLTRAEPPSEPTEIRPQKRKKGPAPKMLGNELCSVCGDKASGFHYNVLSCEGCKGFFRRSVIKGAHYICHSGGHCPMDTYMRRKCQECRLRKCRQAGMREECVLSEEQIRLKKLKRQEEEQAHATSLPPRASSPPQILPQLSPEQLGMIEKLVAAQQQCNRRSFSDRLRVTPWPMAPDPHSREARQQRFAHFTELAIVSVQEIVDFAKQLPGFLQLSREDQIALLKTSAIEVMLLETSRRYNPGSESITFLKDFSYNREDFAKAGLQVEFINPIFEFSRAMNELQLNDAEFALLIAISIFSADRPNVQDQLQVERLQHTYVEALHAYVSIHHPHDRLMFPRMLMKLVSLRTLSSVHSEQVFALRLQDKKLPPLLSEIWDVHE
Experimental: (§1) Human neuroblastoma SH-SY5Y cells were grown in DMEM/F12 medium containing 10% fetal bovine serum (FBS) and 1% antibiotic/antimycotic mix. Cells were maintained at 37° C. in a saturated humidity atmosphere containing 95% air and 5% CO2.
(§2) ChIP analysis was performed to evaluate the extent of ERα/ERβ and LXRα/LXRβ binding to the DNA elements in the TH promoter and α-synuclein promoter regions respectively using “SimpleChIP™ Enzymatic Chromatic IP kit” from Cell Signaling (Boston, Mass.).
(§3) Briefly, cells from each treatment group (3×10^6 cells) were washed with PBS, trypsinized, centrifuged at 5000 g. The pellet containing the cells was further washed with PBS and cross-linked using 37% formaldehyde for 15 min followed by the addition of glycine solution to cease the cross-linking reaction.
(§4) The cells were washed with 4× volumes of 1×PBS and centrifuged at ˜220 g for 5 min. The pellet was resuspended and incubated for 10 min in 5 ml of tissue lysis buffer containing DTT and protease and phosphatase inhibitors. The subsequent steps to isolate the cross-linked chromatin were performed according to the manufacturer's protocol.
The cross-linked chromatin from each sample was apportioned into four equal parts. One quarter of the cross-linked chromatin was set aside as “input.” One quarter of the cross-linked chromatin from each sample was incubated with 5 μg of anti-ERα mouse antibody (Cell Signaling, Boston, Mass.) and 5 μg of anti-ERβ rabbit antibody (Upstate, Bedford, Mass.), or 5 μg of anti-LXRα rabbit antibody (Abcam, Cambridge, Mass.) and 5 μg of anti-LXRβ mouse antibody (Abcam, Cambridge, Mass.), while the remaining one quarter of the cross-linked chromatin from each sample was incubated with 5 μg of normal Rabbit IgG to serve as negative control. […]
The crude DNA extract was eluted and then washed several times with wash buffer containing ethanol (provided with the kit) followed by purification with the use of DNA spin columns provided by the manufacturer. […] The DNA fragment size was determined by electrophoresis on a 1.2% agarose FlashGel^R system (Lonza, Rockland, Me.).
(§5) The relative abundance of the ERα or ERβ antibody precipitated chromatin containing the ERE in the TH promoter region and LXRα or LXRβ antibody precipitated chromatin containing the LXRE in the α-synuclein promoter region was determined by qPCR using an iQ SYBR Green Supermix kit following the manufacturer's instructions (BioRad, Hercules, Calif.) and sequence specific primers (See Table 1 above). […] The fold enrichment of the ERE in the TH promoter region and LXRE in the α-synuclein promoter region was calculated using the ΔΔCt method (K. J. Livak et al., Methods, 25, 402 (2001)) which normalizes ChIP Ct values of each sample to the % input and background.

LXRβ = target: T2, LXRβ (Homo sapiens, UniProt P55055); test: ChIP, LXRβ binding to the LXRE in the α-synuclein promoter; type: cell-based; parameters: endogenous in cells; host or cells: SH-SY5Y human neuroblastoma cells; conditions: SH-SY5Y
T2 sequence (P55055 1-460): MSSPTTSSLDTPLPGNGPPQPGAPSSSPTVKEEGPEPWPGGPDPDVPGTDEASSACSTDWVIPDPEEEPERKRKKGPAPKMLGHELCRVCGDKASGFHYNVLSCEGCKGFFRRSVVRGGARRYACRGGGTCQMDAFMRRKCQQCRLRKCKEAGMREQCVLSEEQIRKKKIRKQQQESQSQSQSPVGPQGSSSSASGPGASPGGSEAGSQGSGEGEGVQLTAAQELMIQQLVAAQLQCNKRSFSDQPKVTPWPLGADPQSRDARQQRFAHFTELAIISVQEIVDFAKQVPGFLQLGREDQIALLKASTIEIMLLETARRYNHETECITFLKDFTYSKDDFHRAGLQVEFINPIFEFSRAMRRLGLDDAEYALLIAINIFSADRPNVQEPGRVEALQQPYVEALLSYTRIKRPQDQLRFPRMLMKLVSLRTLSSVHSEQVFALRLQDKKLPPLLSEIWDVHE
Experimental: as §1, §2, §3, §4
The cross-linked chromatin from each sample was apportioned into four equal parts. One quarter of the cross-linked chromatin was set aside as “input.” One quarter of the cross-linked chromatin from each sample was incubated with 5 μg of anti-ERα mouse antibody (Cell Signaling, Boston, Mass.) and 5 μg of anti-ERβ rabbit antibody (Upstate, Bedford, Mass.), or 5 μg of anti-LXRα rabbit antibody (Abcam, Cambridge, Mass.) and 5 μg of anti-LXRβ mouse antibody (Abcam, Cambridge, Mass.), while the remaining one quarter of the cross-linked chromatin from each sample was incubated with 5 μg of normal Rabbit IgG to serve as negative control.
The cross-linked chromatin samples were incubated overnight at 4° C. with their respective antibodies. The DNA-protein complexes were collected with Protein G agarose beads and washed to remove non-specific antibody binding. The DNA from the DNA-protein complexes from all the samples including the input and negative control was reverse cross-linked by incubation with 2 μL of Proteinase K for 2 hours at 65° C.
The crude DNA extract was eluted and then washed several times with wash buffer containing ethanol (provided with the kit) followed by purification with the use of DNA spin columns provided by the manufacturer. The pure DNA was eluted out of the DNA spin columns using 50 μL of the DNA elution buffer provided in the kit. 1 μL of the purified DNA was used for DNA concentration analysis using the “Quant-iT™ dsDNA Assay kit” from Invitrogen (Carlsbad, Calif.). The DNA fragment size was determined by electrophoresis on a 1.2% agarose FlashGel^R system (Lonza, Rockland, Me.).
as §5

LXRα binding to the LXRE on the α-synuclein promoter (LXRα) | 27-OHC-induced increase in LXRβ binding to the LXRE (LXRβ; co-treatment with 27-OHC) | decrease in LXRβ binding to the LXRE on the α-synuclein promoter (LXRβ; treatment alone vs control) [fold] | LXRα binding to the LXRE in the α-synuclein promoter (LXRα; in combination with 27-OHC) | increase of LXRβ binding to the LXRE on the α-synuclein promoter (LXRβ; in combination with 27-OHC) [fold] | Structure (SMILES) | increase of LXRβ binding to the LXRE in the α-synuclein promoter (LXRβ; treatment alone vs control) [fold]
did not significantly attenuate | significantly reversed | ~2.8 |  |  | CC(C)CCC[C@@H](C)[C@H]1CC[C@H]2[C@@H]3C[C@@H]4O[C@@]45C[C@@H](OS(=O)(=O)O)CC[C@]5(C)[C@H]3CC[C@]12C [ECHS, 5α,6α-epoxycholesterol-3-sulfate] | 
did not elicit any increase |  |  | did not elicit any increase | 4 | Cl.O=C(O)Cc1cccc(OCCCN(Cc2cccc(C(F)(F)F)c2Cl)CC(c2ccccc2)c2ccccc2)c1 [GW3965, 3-[3-[N-(2-Chloro-3-trifluoromethylbenzyl)-(2,2-diphenylethyl)amino]propyloxy]phenylacetic acid hydrochloride] | 3.5

Structure (SMILES) | LXRα binding to the LXRE on the α-synuclein promoter (LXRα) | 27-OHC-induced increase in LXRβ binding to the LXRE (LXRβ; co-treatment with 27-OHC) | decrease in LXRβ binding to the LXRE on the α-synuclein promoter (LXRβ; treatment alone vs control) [fold] | LXRα binding to the LXRE in the α-synuclein promoter (LXRα; in combination with 27-OHC) | increase of LXRβ binding to the LXRE on the α-synuclein promoter (LXRβ; in combination with 27-OHC) [fold] | increase of LXRβ binding to the LXRE in the α-synuclein promoter (LXRβ; treatment alone vs control) [fold]
C[C@@H](CO)CCC[C@@H](C)[C@H]1CC[C@H]2[C@@H]3CC=C4C[C@@H](O)CC[C@]4(C)[C@H]3CC[C@]12C [27-OHC, 27-hydroxycholesterol] | no significant augmentation |  |  |  |  | ~3
